{
  "source": "the NIST ThermoML archive (doi:10.1007/s10765-010-0886-6)",
  "settings": "gamma-densimeter",
  "note": "“And” between values parts separate entries of the source, which are not always exact repeats. Equal values may be shown once. Numbers after ± are expanded uncertainties.",
  "data": [
    {"smiles": "Fc1cc(F)c(F)c(F)c1F", "note": "[pentafluorobenzene]", "values": [
      {"measurement": "mass density", "setting": "293.47 K, Liquid", "result": "1525.2 ± 3", "unit": "kg/m3"},
      {"measurement": "mass density", "setting": "314 K, Gas", "result": 1.13, "unit": "kg/m3"},
      {"measurement": "mass density", "setting": "314 K, Liquid", "result": "1483.8 ± 3", "unit": "kg/m3"},
      {"measurement": "mass density", "setting": "334 K, Liquid", "result": "1441.8 ± 3", "unit": "kg/m3"},
      {"measurement": "mass density", "setting": "353.98 K, Liquid", "result": "1399.8 ± 3", "unit": "kg/m3"},
      {"measurement": "mass density", "setting": "374.24 K, Liquid", "result": "1353.6 ± 3", "unit": "kg/m3"},
      {"measurement": "mass density", "setting": "393.95 K, Gas", "result": "15.9 ± 1.5", "unit": "kg/m3"},
      {"measurement": "mass density", "setting": "393.95 K, Liquid", "result": "1307.6 ± 3", "unit": "kg/m3"},
      {"measurement": "mass density", "setting": "413.94 K, Gas", "result": "24.8 ± 2 kg/m3 and 24.9 ± 2 kg/m3"},
      {"measurement": "mass density", "setting": "413.94 K, Liquid", "result": "1257.5 ± 3", "unit": "kg/m3"},
      {"measurement": "mass density", "setting": "413.95 K, Gas", "result": "24.7 ± 2", "unit": "kg/m3"},
      {"measurement": "mass density", "setting": "433.98 K, Gas", "result": "38.6 ± 2.5", "unit": "kg/m3"},
      {"measurement": "mass density", "setting": "433.98 K, Liquid", "result": "1203 ± 3", "unit": "kg/m3"},
      {"measurement": "mass density", "setting": "454.02 K, Gas", "result": "58.3 ± 2.5", "unit": "kg/m3"},
      {"measurement": "mass density", "setting": "454.02 K, Liquid", "result": "1142.5 ± 3", "unit": "kg/m3"},
      {"measurement": "mass density", "setting": "473.98 K, Gas", "result": "87.1 ± 2.5", "unit": "kg/m3"},
      {"measurement": "mass density", "setting": "473.98 K, Liquid", "result": "1072.2 ± 3", "unit": "kg/m3"},
      {"measurement": "mass density", "setting": "493.99 K, Gas", "result": "131.1 ± 3", "unit": "kg/m3"},
      {"measurement": "mass density", "setting": "493.99 K, Liquid", "result": "986.7 ± 3", "unit": "kg/m3"},
      {"measurement": "mass density", "setting": "504.08 K, Gas", "result": "163.1 ± 3", "unit": "kg/m3"},
      {"measurement": "mass density", "setting": "504.08 K, Liquid", "result": "933.6 ± 3.1", "unit": "kg/m3"},
      {"measurement": "mass density", "setting": "514.2 K, Gas", "result": "208.7 ± 3.1", "unit": "kg/m3"},
      {"measurement": "mass density", "setting": "514.2 K, Liquid", "result": "866.1 ± 3.1", "unit": "kg/m3"},
      {"measurement": "mass density", "setting": "524.52 K, Gas", "result": "287.7 ± 3.1", "unit": "kg/m3"},
      {"measurement": "mass density", "setting": "524.52 K, Liquid", "result": "764.6 ± 3.2", "unit": "kg/m3"},
      {"measurement": "Critical temperature", "setting": "Liquid", "result": "531.04 ± 0.2", "unit": "K"}
    ]}
  ]
}
